11 compounds from EP0719251B1, “BICYCLO (2.2.2) OCTANE DERIVATIVES CHOLECYSTOKININ AND/OR GASTRIN ANTAGONISTS” (JAMES BLACK FOUNDATION LIMITED, priority 1993, dated 1995) can be followed below.

For one assay, the target named is T1, gastrin (Rattus norvegicus, UniProt P30553).
T1 construct: The stomach was excised and flushed with ca. 1 ml of unbuffered physiological saline solution; from tissue; host or cells: isolated whole stomach of immature rats (33-50 g, ca. 21 days old)
T1 sequence (P30553 1-452): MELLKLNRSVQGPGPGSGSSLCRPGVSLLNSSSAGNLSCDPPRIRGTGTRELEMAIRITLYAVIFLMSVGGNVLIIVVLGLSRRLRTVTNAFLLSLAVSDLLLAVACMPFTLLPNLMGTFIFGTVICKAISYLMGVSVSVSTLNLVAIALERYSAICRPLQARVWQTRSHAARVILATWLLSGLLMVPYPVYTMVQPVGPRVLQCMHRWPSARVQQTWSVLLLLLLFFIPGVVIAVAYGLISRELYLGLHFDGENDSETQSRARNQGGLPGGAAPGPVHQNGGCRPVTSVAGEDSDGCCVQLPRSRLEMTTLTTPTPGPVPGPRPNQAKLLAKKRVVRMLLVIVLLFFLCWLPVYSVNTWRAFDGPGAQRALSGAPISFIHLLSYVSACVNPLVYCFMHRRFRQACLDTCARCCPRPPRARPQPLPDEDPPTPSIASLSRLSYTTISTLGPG
Kind of assay: gastrin antagonist activity in an immature rat stomach assay. Conditions: isolated immature rat stomach, cumulative pentagastrin dose-response curves, acid secretion; for Kb: read-out: Gastrin pKB (converted). Summed up: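 Isolated stomachs from immature rats (33-50 g, ca. 21 days) perfused at 1 ml min^-1 with O2-gassed unbuffered saline, perfusate pH monitored by electrode. After 120 min stabilisation, compounds added to serosal bath; cumulative pentagastrin dose-response curves begun 60 min later.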

The next assay deals with T2, CCKB receptor (Mus musculus, UniProt P56481).
T2 construct: The whole brains from male mice (CD1 22-25g; Charles River) were removed; from tissue; host or cells: cerebral cortex membranes of male CD1 mice
T2 sequence (P56481 1-453): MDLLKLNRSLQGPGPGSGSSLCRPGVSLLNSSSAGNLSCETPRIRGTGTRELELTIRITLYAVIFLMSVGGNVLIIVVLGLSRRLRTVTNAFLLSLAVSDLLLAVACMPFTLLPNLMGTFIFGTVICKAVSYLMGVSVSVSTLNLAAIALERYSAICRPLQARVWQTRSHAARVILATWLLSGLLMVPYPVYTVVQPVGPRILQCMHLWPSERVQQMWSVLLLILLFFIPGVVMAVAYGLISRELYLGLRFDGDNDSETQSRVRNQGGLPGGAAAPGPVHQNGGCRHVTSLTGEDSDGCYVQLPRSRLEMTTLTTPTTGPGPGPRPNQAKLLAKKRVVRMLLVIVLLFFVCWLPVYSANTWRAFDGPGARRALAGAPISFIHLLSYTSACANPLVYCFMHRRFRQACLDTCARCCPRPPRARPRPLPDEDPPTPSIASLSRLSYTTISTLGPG
Kind of assay: radioligand binding assay at the CCKB receptor in mouse cortical membranes. Conditions: [125I]-CCK8S 200pM, 150 min at 21 ± 3°C, read-out: CCKB pKi (converted). In outline:
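Cortical membranes from male CD1 mice prepared in HEPES buffer (pH 7.2, with NaCl, KCl, MgCl2, EDTA, bacitracin) at 2 mg/ml wet weight. Binding stopped by rapid filtration over GF/B filters with ice-cold Tris-HCl washes. Bound radioactivity counted in a gamma-counter.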

A further assay concerns the target T3, CCKA (Cavia porcellus, UniProt Q63931).
T3 construct: The pancreatata were removed from male guinea-pigs (200-300g; Dunkin Hartley); from tissue; host or cells: pancreas membranes of male Dunkin Hartley guinea-pigs
T3 sequence (Q63931 1-430): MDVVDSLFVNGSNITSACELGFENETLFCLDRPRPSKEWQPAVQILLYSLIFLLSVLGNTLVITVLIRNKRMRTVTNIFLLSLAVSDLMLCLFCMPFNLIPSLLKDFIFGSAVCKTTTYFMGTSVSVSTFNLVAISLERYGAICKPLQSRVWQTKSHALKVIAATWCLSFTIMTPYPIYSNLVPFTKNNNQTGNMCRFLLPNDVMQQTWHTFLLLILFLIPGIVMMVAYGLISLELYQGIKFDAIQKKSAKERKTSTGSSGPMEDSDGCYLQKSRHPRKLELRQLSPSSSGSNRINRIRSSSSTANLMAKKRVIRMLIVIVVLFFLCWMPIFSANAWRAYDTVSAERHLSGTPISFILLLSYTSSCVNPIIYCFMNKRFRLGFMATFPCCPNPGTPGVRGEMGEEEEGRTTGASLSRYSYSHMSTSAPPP
Kind of assay: CCKA binding assay in guinea-pig pancreas membranes. Conditions: [125I]-CCK8(S) 200pM; for Ki: containing 0.375 µM PD134,308, read-out: CCKA pKi (converted); for CCKA pKi: containing 0.375 µM PD134,308. The procedure: The compounds of the examples were also tested in a CCKÅ binding assay as follows:
The pancreatata were removed from male guinea-pigs (200-300g; Dunkin Hartley) and placed in ice-cold HEPES buffer (pH 7.2 @ 21 ± 3° ). The pancreatata were homogenised in 40 ml ice-cold HEPES buffer using a polytron (Brinkmann, PT10, setting 10) 4 x 1 second.
The homogenate was centrifuged at 39,800g for 15 min at 4°. The supernatant was discarded and the pellet re-suspended using a Teflon-in-glass homogeniser in 20 volumes of fresh buffer and recentrifuged as above. The final pellet was re-suspended using a Teflon-in-glass homogeniser to a tissue concentration of 1 mg.ml^-1 (original wet weight), and filtered through 500 µm pore-size Nytex mesh.
The membranes (400µl; containing 0.375 µM PD134,308) are incubated for 150 minutes at 21 ± 3° in a final volume of 0.5ml with HEPES buffer containing [^125I]-CCK8(S) (50µl; 200pM) and competing compound. Total and non-specific binding of [^125I]-CCK8 (S) are defined using 50µl of buffer and 50µl of 100nM L-364,718 respectively. The assay is terminated by rapid filtration through pre-soaked Whatman GF/B filters using a Brandell Cell Harvester. The filters were washed (3 x 3ml) with ice-cold 50mM Tris HCl (pH 7.4 at 4° ) and bound radioactivity is determined by counting (1 min) in a gamma counter.

As for `O=C(O)c1cc(NC(=O)[C@@H](Cc2cccs2)NC(=O)C2C3c4ccccc4C(c4ccccc43)C2C(=O)NCC23CC4CC(CC(C4)C2)C3)cc(C(=O)O)c1` (single isomer, unassigned) [Example 21, cis-7-(1R-(3,5-dicarboxyphenylaminocarbonyl)-2-(2-thiophenyl)ethylaminocarbonyl)-8-(1-adamantanemethylaminocarbonyl)-2,3,5,6-dibenzobicyclo[2.2.2]octane], the Kb at gastrin is 63.1 nM. Further, the results for the Ki at CCKB receptor and at CCKA were 50.1 nM and 1260 nM, respectively.

Consider `O=C(O)c1cc(NC(=O)[C@H](Cc2ccccc2)NC(=O)C2C3c4ccccc4C(c4ccccc43)C2C(=O)NCc2ccc3ccccc3c2)cc(C(=O)O)c1` (single isomer, unassigned) [Example 64, cis-7-(1S-(3,5-dicarboxyphenylaminocarbonyl) -2-phenylethylaminocarbcnyl)-8-(2-naphthalenemethylaminocarbonyl)-2,3,5,6-dibenzobicyclo [2.2.2]octane], for which the Kb on gastrin is 316 nM. The Ki at CCKB receptor is 5.01 nM. Further, the “CCKA pKi” value at CCKA stood at 5.8.

Regarding `COC(=O)c1cc(NC(=O)[C@H](Cc2ccccc2)NC(=O)C2C3c4ccccc4C(c4ccccc43)C2C(=O)NCC23CC4CC(CC(C4)C2)C3)cc(C(=O)O)c1` (stereo partly drawn) [Example 42, cis-7-(1S-(3-carboxy-5-methoxycarbonyl-phenylaminocarbonyl)-2-phenylethylaminocarbcnyl)-8-(1-adamantanemethylaminocarbonyl) -2,3,5,6-dibenzobicyclo[2.2.2]octane], the Kb on gastrin was 1580 nM. In addition, the values for the Ki at CCKB receptor and on CCKA were 31.6 nM and 2000 nM, respectively.

`O=C(O)c1cccc(NC(=O)[C@H](Cc2ccccc2)NC(=O)C2C3c4ccccc4C(c4ccccc43)C2C(=O)NCC23CC4CC(CC(C4)C2)C3)c1` (single isomer, unassigned) [Example 40, cis-7-(1S-(3-carboxyphenylaminocarbonyl)-2-phenylethylaminocarbonyl) -8-(1-adamantanemethylaminocarbonyl)-2,3,5,6-dibenzobicyclo[2.2.2]octane]: on gastrin, the Kb was 2000 nM. Moreover, the Ki at CCKB receptor is 15.8 nM; on CCKA, 1000 nM.

`O=C(O)c1cc(NC(=O)[C@H](Cc2ccccc2)NC(=O)C2C3c4ccccc4C(c4ccccc43)C2C(=O)NCC2CCCCC2)cc(C(=O)O)c1` (single isomer, unassigned) [Example 31, cis-7-(1S-(3,5-dicarboxyphenylaminocarbonyl) -2-phenylethylaminocarbonyl)-8-(cyclohexanemethylaminocarbonyl) -2,3,5,6-dibenzobicyclo[2.2.2]octane]: the Kb at gastrin is 251 nM. In addition, the Ki on CCKB receptor was 200 nM; at CCKA, 1260 nM.

Consider `CN(C(=O)C1C2c3ccccc3C(c3ccccc32)C1C(=O)NCC12CC3CC(CC(C3)C1)C2)[C@@H](Cc1ccccc1)C(=O)Nc1cc(C(=O)O)cc(C(=O)O)c1` (stereo partly drawn) [Example 38, cis-7-(1S-(3,5-dicarboxyphenylaminocarbonyl) -2-phenylethyl-N (methyl)-aminocarbonyl) -8-(1-adamantanemethylaminocarbonyl) -2,3,5,6-dibenzobicyclo[2.2.2]octane], for which the Kb at gastrin was 79.4 nM. In addition, the Ki on CCKB receptor is 50.1 nM; on CCKA, 316 nM.

`O=C(O)c1cc(NC(=O)[C@H](Cc2ccccc2)NC(=O)C2C3c4ccccc4C(c4ccccc43)C2C(=O)NCc2ccc(Cl)c(Cl)c2)cc(C(=O)O)c1` (single isomer, unassigned) [Example 35, cis-7-(1S-(3,5-dicarboxyphenylaminocarbonyl)-2-phenylethylaminocarbonyl) -8-(3,4-dichlorophenyl-methylaminocarbonyl) -2,3,5,6-dibenzobicyclo[2.2.2]octane]: the Kb at gastrin was 1000 nM. The Ki at CCKB receptor was 158 nM; on CCKA, 1260 nM.

As for `O=C(O)c1cccc(NC(=O)[C@H](Cc2ccccc2)NC(=O)C2C3c4ccccc4C(c4ccccc43)C2C(=O)NCC23CC4CC(CC(C4)C2)C3)c1` (single isomer, unassigned) [Example 41, cis-7-(1S-(3-carboxyphenylaminocarbonyl)-2-phenylethylaminocarbonyl)-8-(1-adamantanemethylaminocarbonyl)-2,3,5,6-dibenzobicyclo[2.2.2]octane], the “Gastrin pKB” value at gastrin (60 min) was found to be 5.7. The Ki on CCKB receptor is 158 nM. Moreover, the “CCKA pKi” value on CCKA was 6.0.

Take `O=C(O)c1cc(NC(=O)[C@H](Cc2ccc(Cl)cc2)NC(=O)C2C3c4ccccc4C(c4ccccc43)C2C(=O)NCC23CC4CC(CC(C4)C2)C3)cc(C(=O)O)c1` (single isomer, unassigned) [Example 10, cis-7-(1S-(3,5-dicarboxyphenylaminocarbonyl)-2-(4-chlorophenyl)-ethylaminocarbonyl)-8-(1-adamantanemethylaminocarbonyl) -2,3,5,6-dibenzobicyclo[2.2.2]octane]: the Kb on gastrin was 5.01 nM. For the same compound, the Ki is 10 nM at CCKB receptor and 794 nM at CCKA.

With `O=C(O)c1cc(NC(=O)[C@H](Cc2ccccc2)NC(=O)C2C3c4ccccc4C(c4ccccc43)C2C(=O)NCC2CCCCC2)cc(C(=O)O)c1` (single isomer, unassigned) [Example 30, cis-7-(1S-(3,5-dicarboxyphenylaminocarbonyl)-2-phenylethylaminocarbonyl)-8-(1-cyclohexanemethylaminocarbonyl)-2,3,5,6-dibenzobicyclo [2.2.2] octane], the Kb at gastrin was 50.1 nM. In addition, the values for the Ki on CCKB receptor and at CCKA were 20 nM and 3980 nM, respectively.

In the case of `O=C(O)c1cc(NC(=O)[C@H](Cc2ccccc2)NC(=O)C2C3c4ccccc4C(c4ccccc43)C2C(=O)NCc2ccc(Cl)c(Cl)c2)cc(C(=O)O)c1` (single isomer, unassigned) [Example 34, cis-7-(1S-(3,5-dicarboxyphenylaminocarbonyl) -2-phenylethylaminocarbonyl) -8-(3,4-dichlorophenyl-methylaminocarbonyl) -2,3,5,6-dibenzobicyclo[2.2.2]octane], on gastrin, the Kb is 316 nM. Also, the Ki at CCKB receptor was 39.8 nM; on CCKA, 251 nM.
